According to patent US8263601B2, “Deuterium substituted xanthine derivatives” (CoNCERT Pharmaceuticals, Inc., priority 2009, dated 2012):
Like-named read-outs stand apart in the source and are kept apart here.

Assays:
[1] = Stability of compounds in rat whole blood (Example 35); format: in vitro ADME; conditions: 5 μM, 37° C., 2 hours, FIG. 3
Method: This study was performed to evaluate the stability of the title compounds in rat whole blood. Because the ketone (or keto-compound; either pentoxifylline or 409) and its corresponding M-1 alcohol metabolite interconvert, levels of these components were measured after either the keto-compound was added to the blood or the M-1 was added. In other words, in some tests the keto-compound was the starting test compound and in other tests an M-1 metabolite was the starting test compound.
Fresh rat whole blood was obtained from ViviSource Laboratories, Waltham, Mass. Stock solutions (7.5 millimolar (mM)) of test compounds were prepared in dimethyl sulfoxide (DMSO). The 7.5 mM stock solutions were diluted to 500 micromolar (μM) in acetonitrile (ACN). To 990 microliters (μL) of blood pre-warmed to 37° C. for 7 minutes was added 10 μl, of 500 μM test compound to a final concentration of 5 μM. The test compounds were pentoxifylline, (S)-M1 metabolite of pentoxifylline, (R)-M1 metabolite of pentoxifylline, Compound 409, Compound 435(S), and Compound 435(R). The latter two test compounds are deuterated (S)-M1 and (R)-M1 metabolites, respectively, of Compound 409. The reaction mixture was incubated at 37° C. Aliquots (50 μL) were removed at 0 min, 5 min, 15 min, 30 min, 1 hour and 2 hours following the addition of test compound and added to 96-well plates containing 150 μL of ice cold acetonitrile with an internal standard to stop the reaction. The plates were stored at −20° C. for 20 minutes after which 100 μL of 50% acetonitrile/water was added to the wells of the plate prior to centrifugation to pellet precipitated proteins. A 200-μL aliquot of each supernatant was transferred to another 96-well plate and analyzed by LC-MS/MS using an Applied Bio-systems API 4000 mass spectrometer for amounts of the administered compound and its specific metabolite listed in Table 11 below.
The results of this study are depicted in FIGS. 2 and 3.

[2] = Compound stability in human liver microsomes (Example 36); format: in vitro ADME; conditions: 30 minutes
Method: Example 36 is similar to Example 35 in design, except that human liver microsomes were used instead of rat whole blood to study the metabolism of the compounds.
Human liver microsomes (20 mg/mL) were obtained from Xenotech, LLC (Lenexa, Kans.). β-nicotinamide adenine dinucleotide phosphate, reduced form (NADPH), magnesium chloride (MgCl2), and dimethyl sulfoxide (DMSO) were purchased from Sigma-Aldrich.
Stock solutions containing 7.5 mM of test compounds (pentoxifylline, (S)-M1 metabolite, (R)-M1 metabolite, Compound 409, Compound 435(S), and Compound 435(R)) were prepared in DMSO. The 7.5-mM stock solutions were diluted to 250 μM in acetonitrile (ACN). The human liver microsomes were diluted to 2.5 mg/mL in 0.1 M potassium phosphate buffer, pH 7.4, containing 3 mM MgCl2. The diluted microsomes were added to wells of a 96-well deep-well polypropylene plate in triplicate. 10 μL of the 250 μM test compound was added to the microsomes and the mixture was pre-warmed to 37° C. for 10 minutes. Reactions were initiated by addition of pre-warmed NADPH solution. The final reaction volume was 0.5 mL and contained 2.0 mg/mL human liver microsomes, 5 μM test compound, and 2 mM NADPH in 0.1M potassium phosphate buffer, pH 7.4, and 3 mM MgCl2. The reaction mixtures were incubated at 37° C., and 50-μL aliquots were removed at 0, 5, 10, 20, and 30 minutes and added to shallow-well 96-well plates which contained 50 μL of ice-cold acetonitrile with internal standard to stop the reactions. The plates were stored at 4° C. for 20 minutes after which 100 μL of water was added to the wells of the plate before centrifugation to pellet precipitated proteins. Supernatants were transferred to another 96-well plate and analyzed for the amount of the administered compound and its specific metabolite (listed in Table 11 above) by LC-MS/MS using an Applied Bio-systems API 4000 mass spectrometer.
The results of this study are depicted in FIGS. 4 and 5. […]

[3] = Pharmacokinetic study of pentoxifylline and Compound 435(S) in chimps after intravenous dosing (Example 38); format: in vivo; conditions: for AUC(0-inf): IV infusion 75 mg each of pentoxifylline and 435(S) over 10 minutes, species named in label measured in plasma; for % Difference in AUC0-∞ Female (deuterated vs nondeuterated species) / % Difference in AUC0-∞ Male (deuterated vs nondeuterated species): intravenous
Method: Pentoxifylline and Compound 435(S) were separately dissolved in warm (65° C.) saline at a concentration at 10 mg/mL. A 1:1 mixture of the two compounds was then prepared containing a final concentration of 5 mg/mL of each compound and the mixture was then sterile filtered through a 0.2-μm filter.
Two chimps (one male and one female) were used in each of the oral and intravenous studies. Animals were fasted overnight prior to administration of compounds. All animals were sedated with ketamine (approximately 10 mg/kg) and/or telazol (approximately 5 mg/kg) prior to dosing. Intravenous administration was achieved by IV infusion of 75 mg of each compound (15 mL total dosing solution) over 10 minutes. Oral administration was achieved by oral gavage of a single 75 mg dose of each compound (15 mL total dosing solution). Blood samples (6 mL) were collected from the dosed chimps at various times prior to and after dosing. For intravenous administrations blood samples were collected at 0 min (preinfusion), 5 min, 9.5 min (immediately before the end of the infusion), then 6, 15, 30 and 45 min, and 1, 2, 4, 6, 8, 10 and 12 hr after the infusion is stopped. For oral administrations, blood samples were collected at 0 min (predose), 15 and 30 min, and 1, 1.5, 2, 4, 6, 8, 10 and 12 hr postdose.
Blood samples were placed in tubes containing sodium heparin, mixed and stored on ice until centrifuged. Within 30 minutes of collection, plasma was isolated by centrifuging the blood samples and removing an aliquot (200 μL) of the resulting plasma. Each 200-μL aliquot of plasma was mixed with 400 μL acetonitrile and stored at −70° C. until further analysis by LC-MS/MS using an Applied Bio-systems API 4000 mass spectrometer.
The analysis of all samples by LC-MS/MS was performed as described above for the rat plasma samples in Example 37.

[4] = Pharmacokinetic study of 435(S) and other representative compounds in chimps after oral dosing (Example 40); format: in vivo; conditions: species named in label measured in plasma
Method: 435(S) and representative compounds 121(S), 137(S), 421(S) and 437(S) were separately dissolved in warm (65° C.) water at a concentration [[of 10 mg/mL]]. The same protocol described for Example 39 was then followed for each representative compound.

[5] = female chimp, read-out: AUC0-∞ Female
[6] = male chimp, read-out: AUC0-∞ Male
[7] = female, plasma, po, 65 mg, Table 17 i): female chimp, 435(S) and 121(S), read-out: AUC0-12 Female
[8] = female, plasma, po, 65 mg, Table 17 ii): female chimp, 435(S) and 137(S), read-out: AUC0-12 Female
[9] = female, plasma, po, 65 mg, Table 17 iii): female chimp, 435(S) and 421(S), read-out: AUC0-12 Female
[10] = female, plasma, po, 65 mg, Table 17 iv): female chimp, 435(S) and 437(S), read-out: AUC0-12 Female
[11] = male, plasma, po, 65 mg, Table 17 i): male chimp, 435(S) and 121(S), read-out: AUC0-12 Male
[12] = male, plasma, po, 65 mg, Table 17 ii): male chimp, 435(S) and 137(S), read-out: AUC0-12 Male
[13] = male, plasma, po, 65 mg, Table 17 iii): male chimp, 435(S) and 421(S), read-out: AUC0-12 Male
[14] = male, plasma, po, 65 mg, Table 17 iv): male chimp, 435(S) and 437(S), read-out: AUC0-12 Male

Row | SMILES | Keto-compound (pentoxifylline or Compound 409) formed from M-1 alcohol [1] | Keto-compound (pentoxifylline or Compound 409) formed from M-1 alcohol ([2]; human liver microsomes 2.0 mg/mL, 5 μM, NADPH, FIG. 5 columns C and D) | More pentoxifylline produced from (S)-M1 than Compound 409 produced from Compound 435 (S) ([2]; human liver microsomes) | AUC(0-inf) [3, 5] [ng·h/mL] | % Difference in AUC0-∞ Female (deuterated vs nondeuterated species) ([3]; female chimp) | AUC(0-inf) [3, 6] [ng·h/mL] | % Difference in AUC0-∞ Male (deuterated vs nondeuterated species) ([3]; male chimp) | AUC(0-t) [4, 7] [ng·h/mL] | AUC(0-t) [4, 8] [ng·h/mL] | AUC(0-t) [4, 9] [ng·h/mL] | AUC(0-t) [4, 10] [ng·h/mL] | AUC(0-t) [4, 11] [ng·h/mL] | AUC(0-t) [4, 12] [ng·h/mL] | AUC(0-t) [4, 13] [ng·h/mL] | AUC(0-t) [4, 14] [ng·h/mL]
1 | C[C@H](O)CCCCn1c(=O)c2c(ncn2C)n(C)c1=O [(S)-M1, reference compound] | appreciable amount of pentoxifylline present | significant amount of pentoxifylline present | Approximately 30% | – | – | – | – | – | – | – | – | – | – | – | –
2 | [2H]c1nc2c(c(=O)n(CCCC([2H])([2H])[C@@]([2H])(O)C([2H])([2H])[2H])c(=O)n2C)n1C([2H])([2H])[2H] [Compound 435(S), (S)-8-d1-1-(4,4,5,6,6,6-d6-5-Hydroxyhexyl)-3-methyl-7-(methyl-d3)-1H-purine-2,6(3H,7H)-dione] | not detected | – | – | 1210 | +84% | 2520 | +61% | 133 | 243 | 947 | 1140 | 354 | 100 | 881 | 686
3 | [2H]c1nc2c(c(=O)n(CCCC(=O)O)c(=O)n2C)n1C([2H])([2H])[2H] [Deuterated M5 (M5a)] | – | – | – | 632 | −60% | 428 | −65% | 670 | 754 | 376 | 306 | 585 | 719 | 500 | 562
